The values below come from article doi:10.1101/2025.09.20.677545v1, “Parallel Evolution of a Drimenol Biosynthetic Gene Cluster Unique to Marine Bacteria” (biorxiv, 2025).

Holding throughout (assay type): biochemical
In assay [1] the target is T1, FeFPPS (Flavivirga eckloniae, UniProt A0A2K9PVX7).
T1 construct: gene C1H87_21960; codon-optimized, N-terminal His8 tag kept, pET28b(+), E. coli BL21 Star (DE3), TALON
T1 sequence (A0A2K9PVX7 1-289): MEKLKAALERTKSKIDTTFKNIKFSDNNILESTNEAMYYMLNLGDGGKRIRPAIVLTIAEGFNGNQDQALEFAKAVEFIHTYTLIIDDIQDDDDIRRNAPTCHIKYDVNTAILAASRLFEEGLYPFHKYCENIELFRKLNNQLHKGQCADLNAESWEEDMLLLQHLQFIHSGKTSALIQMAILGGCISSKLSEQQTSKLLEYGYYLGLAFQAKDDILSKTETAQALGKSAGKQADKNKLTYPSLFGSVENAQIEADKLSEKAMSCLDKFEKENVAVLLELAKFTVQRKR
The assay can be described thus: GC-MS of farnesol after alkaline phosphatase (BAP) treatment. The settings on record: 100 μM GPP with 100 μM IPP; otherwise same.

Assay [2] addresses T2, AsFPPS (Aquimarina spongiae, UniProt A0A1M6CXH4).
T2 construct: gene SAMN04488508_102321; codon-optimized, N-terminal His8 tag kept, pET28b(+), E. coli BL21 Star (DE3), TALON
T2 sequence (A0A1M6CXH4 1-289): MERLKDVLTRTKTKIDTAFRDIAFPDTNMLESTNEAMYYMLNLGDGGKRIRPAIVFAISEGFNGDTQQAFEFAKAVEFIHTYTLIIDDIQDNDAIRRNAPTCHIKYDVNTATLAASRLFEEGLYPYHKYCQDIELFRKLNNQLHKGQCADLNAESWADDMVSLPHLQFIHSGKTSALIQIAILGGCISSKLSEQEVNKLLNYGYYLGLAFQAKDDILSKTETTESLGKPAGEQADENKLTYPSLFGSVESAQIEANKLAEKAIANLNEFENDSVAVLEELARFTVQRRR
Described as above. The settings on record: 100 μM GPP with 100 μM IPP; otherwise same.

Assay [3] addresses T3, Sc terpene synthase β (Sorangium cellulosum, UniProt Z9XJ57G830).
T3 construct: codon-optimized, N-terminal His8 tag kept, pET28b(+), E. coli BL21 Star (DE3), TALON; single β domain with DxDVT134-138 motif
T3 sequence (Z9XJ57G830 1-342): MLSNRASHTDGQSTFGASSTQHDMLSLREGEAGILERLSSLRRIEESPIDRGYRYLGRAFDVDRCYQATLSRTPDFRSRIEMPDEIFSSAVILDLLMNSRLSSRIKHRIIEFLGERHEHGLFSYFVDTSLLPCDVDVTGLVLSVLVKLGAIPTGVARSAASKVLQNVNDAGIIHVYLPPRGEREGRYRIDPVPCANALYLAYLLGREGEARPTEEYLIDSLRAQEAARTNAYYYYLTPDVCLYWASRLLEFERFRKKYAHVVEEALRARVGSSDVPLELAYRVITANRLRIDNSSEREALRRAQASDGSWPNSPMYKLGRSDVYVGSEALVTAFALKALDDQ
The assay can be described thus: GC-MS of product after alkaline phosphatase (BAP) treatment. The conditions noted are these: […] FPP, […] enzyme, […] Tris-HCl pH […] MgCl2 (Mg2+ not required), […] °C; cyclization to a diphosphate, product seen only after BAP.

For the compound `CC(C)=CCC/C(C)=C/COP(=O)(O)OP(=O)(O)O` [geranyl pyrophosphate], the “GC-MS of farnesol after alkaline phosphatase (BAP) treatment” value in assay [1] and in assay [2] was “dimethylallyl pyrophosphate (DMAPP) or geranyl pyrophosphate (GPP) as an allylic substrate” in each case.
Consider `CC(C)=CCC/C(C)=C/CC/C(C)=C/COP(=O)(O)OP(=O)(O)O` [farnesyl pyrophosphate], for which the “GC-MS of product after alkaline phosphatase (BAP) treatment” value in assay [3] is “Sc terpene synthase β is monofunctional and performs only the cyclization step of FPP”.
